Laboratory results reported in patent US20250298019A1, “BORRELIA BURGDORFERI PEPTIDOGLYCAN DETECTION METHODS” (VIRGINIA TECH INTELLECTUAL PROPERTIES, INC., priority 2021, published 2025).

Test system: B. burgdorferi 5A11
Assay: Growth of B. burgdorferi in BSK-II medium with GlcNAc replaced by other N-acetylated sugars
Type: cell-based, Borrelia burgdorferi
Conditions: FIG. 7; for ability to support growth in the absence of GlcNAc: GlcNAc-free BSK-II supplemented with the sugar, 37° C., 5% CO2

CC(=O)N[C@H]1C(O)O[C@H](CO)[C@H](O)[C@@H]1O (stereo partly drawn) [GalNAc, N-acetylgalactosamine]
ability to support growth in the absence of GlcNAc: support growth in the absence of GlcNAc

CC(=O)N[C@@H]1C(O)O[C@H](CO)[C@@H](O)[C@@H]1O (stereo partly drawn) [ManNAc, N-acetylmannosamine]
replication rate and final density compared with GlcNAc (5A11 in BSK-II complete media supplemented with the sugar, three independent cultures): replicated at a similar rate and reached a comparable final density to GlcNAc
ability to support growth in the absence of GlcNAc: support growth in the absence of GlcNAc
